Results taken from ChEMBL document CHEMBL5260838 (J Med Chem, 2019).
≈ marks a conversion by molar mass, not a printed value.

What was measured:
[1] = Apparent permeability from apical to basolateral side in MDCK1 cells; format: ADME, cell-based, Canis lupus familiaris; details: dog, MDCK
Mus musculus [2] = assay: Antinociceptive activity against aconitine-induced pain in FVB mouse model expressing human Nav 1.7 I848T mutant assessed as reduction in nociceptive behavior at 3 mg/kg, po administered 120 mins prior to aconitine administration and measured after 70 mins relative to control; format: functional; design: scale not given: the % may be the effect or the level left; details: time 190 min, 3.167 h
MDR1 [3] = assay: Apparent permeability from apical to basolateral side in MDCK1 cells expressing MDR1; format: ADME, cell-based, Canis lupus familiaris; details: dog, MDCK-MDR1
MDR1 [4] = assay: Efflux ratio of apparent permeability across basolateral to apical side over apical to basolateral side in MDCK1 cells expressing MDR1; format: ADME, cell-based, Canis lupus familiaris; details: dog, MDCK-MDR1
[5] = Drug concentration in brain of FVB mouse model of aconitine-induced pain expressing human Nav1.7 I848T mutant at 3 mg/kg, po administered 120 mins prior to aconitine administered and measured after 70 mins by UPLC-ESI MS/MS analysis; format: ADME, organism-based; details: time 190 min, read-out: Ct
[6] = Drug concentration in plasma of orally dosed formalin-induced FVB mouse model of pain measured after 3 hrs by UPLC-ESI […] analysis; format: ADME, organism-based; details: route po
[7] = Toxicity in FVB mouse assessed as tolerance; details: in vivo
Mus musculus [8] = assay: Antinociceptive activity against aconitine-induced pain in FVB mouse model expressing human Nav 1.7 I848T mutant assessed as reduction in nociceptive behavior at 0.3 mg/kg, po administered 120 mins prior to aconitine administration and measured after 70 mins relative to control; format: functional; design: scale not given: the % may be the effect or the level left; details: time 190 min, 3.167 h
[9] = AUC in Sprague-Dawley rat at 5 mg/kg, po; format: ADME, organism-based; design: dose 5 mg/kg, route po; details: in vivo
[10] = Lipophilicity, logD of the compound at pH 7.4; format: physicochemical; details: buffer, read-out: logD
[11] = Protein binding in human plasma; format: ADME, cell-free; details: read-out: PPB (converted)
[12] = biological target: Sodium channel protein type 2 subunit alpha (Homo sapiens, UniProt Q99250); assay: Inhibition of human Nav1.2 alpha subunit expressed in HEK293 cells co-expressing beta1 subunit at -35 mV holding potential by PatchXpress automated voltage clamp electrophysiology technique; format: cell-based
[13] = Efflux ratio of apparent permeability across basolateral to apical side over apical to basolateral side in MDCK1 cells; format: ADME, cell-based, Canis lupus familiaris; details: dog, MDCK
[14] = biological target: Sodium channel protein type 5 subunit alpha (Homo sapiens, UniProt Q14524); assay: Inhibition of human Nav1.5 alpha subunit expressed in HEK293 cells co-expressing beta1 subunit at -60 mV holding potential by PatchXpress automated voltage clamp electrophysiology technique; format: cell-based
[15] = Cmax in Beagle dog at 1 mg/kg, po; format: ADME, organism-based, Canis lupus familiaris; design: dose 1 mg/kg, route po; details: in vivo
[16] = Volume of distribution at steady state in FVB mouse at 1 mg/kg, iv; format: ADME, organism-based; details: in vivo, iv, 1 mg/kg
[17] = Clearance in Sprague-Dawley rat at 1 mg/kg, iv; format: ADME, organism-based; details: in vivo
Mus musculus [18] = assay: Antinociceptive activity against aconitine-induced pain in FVB mouse model expressing human Nav 1.7 I848T mutant assessed as reduction in nociceptive behavior at 10 mg/kg, po administered 120 mins prior to aconitine administration and measured after 70 mins relative to control; format: functional; design: scale not given: the % may be the effect or the level left; details: time 190 min, 3.167 h
Cytochrome P450 2C19 = Cytochrome P450 2C19 (Homo sapiens, UniProt P33261); assay: Inhibition of CYP2C19 (unknown origin); format: ADME
[19] = Drug concentration in brain of FVB mouse model of aconitine-induced pain expressing human Nav1.7 I848T mutant at 10 mg/kg, po administered 120 mins prior to aconitine administered and measured after 70 mins by UPLC-ESI MS/MS analysis; format: ADME, organism-based; details: time 190 min, read-out: Ct
[20] = Kinetic solubility of compound; format: physicochemical; details: read-out: Kinetic_solubility
[21] = biological target: Sodium channel protein type 9 subunit alpha (Rattus norvegicus, UniProt O08562); assay: Inhibition of rat Nav1.7 at -60 mV holding potential by PatchXpress automated voltage clamp electrophysiology technique
[22] = Half-life in Sprague-Dawley rat at 1 mg/kg, iv; format: ADME, organism-based; details: in vivo
[23] = Volume of distribution at steady state in Beagle dog at 0.5 mg/kg, iv; format: ADME, organism-based, Canis lupus familiaris; details: in vivo, read-out: Vdss
[24] = Half-life in FVB mouse at 1 mg/kg, iv; format: ADME, organism-based; details: in vivo, iv, 1 mg/kg
[25] = Volume of distribution at steady state in Sprague-Dawley rat at 1 mg/kg, iv; format: ADME, organism-based; details: in vivo, read-out: Vdss
Mus musculus [26] = assay: Antinociceptive activity against aconitine-induced pain in FVB mouse model expressing human Nav 1.7 I848T mutant assessed as reduction in nociceptive behavior at 0.1 mg/kg, po administered 120 mins prior to aconitine administration and measured after 70 mins relative to control; format: functional; design: scale not given: the % may be the effect or the level left; details: time 190 min, 3.167 h
[27] = system: mouse breast cancer resistant protein (Bcrp); assay: Efflux ratio of apparent permeability across basolateral to apical side over apical to basolateral side MDCK-II cells expressing mouse breast cancer resistant protein; format: ADME, cell-based, Canis lupus familiaris; details: dog
Cytochrome P450 2D6 = Cytochrome P450 2D6 (Homo sapiens, UniProt P10635); assay: Inhibition of CYP2D6 (unknown origin); format: ADME
[28] = Oral bioavailability in FVB mouse at 30 mg/kg; format: ADME, organism-based; details: in vivo
[29] = AUC in Beagle dog at 1 mg/kg, po; format: ADME, organism-based, Canis lupus familiaris; design: dose 1 mg/kg, route po; details: in vivo
Mus musculus [30] = assay: Antinociceptive activity against aconitine-induced pain in FVB mouse model expressing human Nav 1.7 I848T mutant assessed as reduction in nociceptive behavior at 1 mg/kg, po administered 120 mins prior to aconitine administration and measured after 70 mins relative to control; format: functional; design: scale not given: the % may be the effect or the level left; details: time 190 min, 3.167 h

Chain of Sodium channel protein type 9 subunit alpha (O08562 whole entry): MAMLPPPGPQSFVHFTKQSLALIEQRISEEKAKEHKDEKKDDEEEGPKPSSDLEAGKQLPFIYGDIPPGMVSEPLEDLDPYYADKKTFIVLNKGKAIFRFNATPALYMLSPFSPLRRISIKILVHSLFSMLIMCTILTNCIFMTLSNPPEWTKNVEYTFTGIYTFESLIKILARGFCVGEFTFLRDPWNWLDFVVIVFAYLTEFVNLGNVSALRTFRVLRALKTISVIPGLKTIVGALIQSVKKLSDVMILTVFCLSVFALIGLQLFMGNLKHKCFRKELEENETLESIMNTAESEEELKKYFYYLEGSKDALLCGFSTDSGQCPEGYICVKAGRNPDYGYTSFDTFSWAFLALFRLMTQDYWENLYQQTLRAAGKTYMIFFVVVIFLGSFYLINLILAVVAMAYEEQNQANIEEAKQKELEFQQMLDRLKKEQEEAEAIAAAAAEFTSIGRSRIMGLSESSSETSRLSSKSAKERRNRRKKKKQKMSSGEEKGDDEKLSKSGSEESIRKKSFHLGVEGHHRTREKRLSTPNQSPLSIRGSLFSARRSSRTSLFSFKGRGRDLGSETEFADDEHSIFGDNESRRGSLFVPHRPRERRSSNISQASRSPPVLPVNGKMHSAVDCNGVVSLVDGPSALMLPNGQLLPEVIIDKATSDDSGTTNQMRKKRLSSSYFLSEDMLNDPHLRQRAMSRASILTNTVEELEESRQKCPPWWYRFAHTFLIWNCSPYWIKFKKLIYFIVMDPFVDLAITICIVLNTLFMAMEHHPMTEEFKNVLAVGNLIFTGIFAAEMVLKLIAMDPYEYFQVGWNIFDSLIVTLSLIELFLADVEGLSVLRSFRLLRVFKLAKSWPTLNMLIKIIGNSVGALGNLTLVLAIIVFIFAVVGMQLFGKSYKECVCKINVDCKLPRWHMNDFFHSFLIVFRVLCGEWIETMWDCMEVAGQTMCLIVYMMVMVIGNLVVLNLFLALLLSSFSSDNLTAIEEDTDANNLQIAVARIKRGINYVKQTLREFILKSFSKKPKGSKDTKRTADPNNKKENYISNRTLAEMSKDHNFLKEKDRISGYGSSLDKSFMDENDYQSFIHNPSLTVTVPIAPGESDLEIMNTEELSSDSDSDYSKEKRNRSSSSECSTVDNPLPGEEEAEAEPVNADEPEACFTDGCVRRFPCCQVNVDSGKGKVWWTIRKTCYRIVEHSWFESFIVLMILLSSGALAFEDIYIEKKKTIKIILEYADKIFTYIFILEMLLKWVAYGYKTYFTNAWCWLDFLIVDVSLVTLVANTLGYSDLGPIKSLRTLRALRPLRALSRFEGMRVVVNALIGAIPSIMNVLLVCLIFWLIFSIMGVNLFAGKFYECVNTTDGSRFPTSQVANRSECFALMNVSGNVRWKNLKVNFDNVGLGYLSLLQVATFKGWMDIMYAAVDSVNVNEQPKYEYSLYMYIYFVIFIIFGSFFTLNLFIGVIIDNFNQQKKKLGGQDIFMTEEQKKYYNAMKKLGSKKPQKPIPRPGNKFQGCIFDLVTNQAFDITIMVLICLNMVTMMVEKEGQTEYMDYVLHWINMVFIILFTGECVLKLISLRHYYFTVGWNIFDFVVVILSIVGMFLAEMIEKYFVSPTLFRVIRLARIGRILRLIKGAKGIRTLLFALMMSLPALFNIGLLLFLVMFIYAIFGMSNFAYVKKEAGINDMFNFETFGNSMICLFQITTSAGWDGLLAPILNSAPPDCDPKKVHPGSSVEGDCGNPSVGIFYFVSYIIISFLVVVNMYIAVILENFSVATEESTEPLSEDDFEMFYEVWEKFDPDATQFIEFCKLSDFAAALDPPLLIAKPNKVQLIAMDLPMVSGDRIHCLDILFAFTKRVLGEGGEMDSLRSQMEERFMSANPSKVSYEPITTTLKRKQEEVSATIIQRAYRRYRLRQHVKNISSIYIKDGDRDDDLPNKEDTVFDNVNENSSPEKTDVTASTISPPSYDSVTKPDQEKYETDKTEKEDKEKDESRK
Chain of Sodium channel protein type 2 subunit alpha (Q99250 whole entry): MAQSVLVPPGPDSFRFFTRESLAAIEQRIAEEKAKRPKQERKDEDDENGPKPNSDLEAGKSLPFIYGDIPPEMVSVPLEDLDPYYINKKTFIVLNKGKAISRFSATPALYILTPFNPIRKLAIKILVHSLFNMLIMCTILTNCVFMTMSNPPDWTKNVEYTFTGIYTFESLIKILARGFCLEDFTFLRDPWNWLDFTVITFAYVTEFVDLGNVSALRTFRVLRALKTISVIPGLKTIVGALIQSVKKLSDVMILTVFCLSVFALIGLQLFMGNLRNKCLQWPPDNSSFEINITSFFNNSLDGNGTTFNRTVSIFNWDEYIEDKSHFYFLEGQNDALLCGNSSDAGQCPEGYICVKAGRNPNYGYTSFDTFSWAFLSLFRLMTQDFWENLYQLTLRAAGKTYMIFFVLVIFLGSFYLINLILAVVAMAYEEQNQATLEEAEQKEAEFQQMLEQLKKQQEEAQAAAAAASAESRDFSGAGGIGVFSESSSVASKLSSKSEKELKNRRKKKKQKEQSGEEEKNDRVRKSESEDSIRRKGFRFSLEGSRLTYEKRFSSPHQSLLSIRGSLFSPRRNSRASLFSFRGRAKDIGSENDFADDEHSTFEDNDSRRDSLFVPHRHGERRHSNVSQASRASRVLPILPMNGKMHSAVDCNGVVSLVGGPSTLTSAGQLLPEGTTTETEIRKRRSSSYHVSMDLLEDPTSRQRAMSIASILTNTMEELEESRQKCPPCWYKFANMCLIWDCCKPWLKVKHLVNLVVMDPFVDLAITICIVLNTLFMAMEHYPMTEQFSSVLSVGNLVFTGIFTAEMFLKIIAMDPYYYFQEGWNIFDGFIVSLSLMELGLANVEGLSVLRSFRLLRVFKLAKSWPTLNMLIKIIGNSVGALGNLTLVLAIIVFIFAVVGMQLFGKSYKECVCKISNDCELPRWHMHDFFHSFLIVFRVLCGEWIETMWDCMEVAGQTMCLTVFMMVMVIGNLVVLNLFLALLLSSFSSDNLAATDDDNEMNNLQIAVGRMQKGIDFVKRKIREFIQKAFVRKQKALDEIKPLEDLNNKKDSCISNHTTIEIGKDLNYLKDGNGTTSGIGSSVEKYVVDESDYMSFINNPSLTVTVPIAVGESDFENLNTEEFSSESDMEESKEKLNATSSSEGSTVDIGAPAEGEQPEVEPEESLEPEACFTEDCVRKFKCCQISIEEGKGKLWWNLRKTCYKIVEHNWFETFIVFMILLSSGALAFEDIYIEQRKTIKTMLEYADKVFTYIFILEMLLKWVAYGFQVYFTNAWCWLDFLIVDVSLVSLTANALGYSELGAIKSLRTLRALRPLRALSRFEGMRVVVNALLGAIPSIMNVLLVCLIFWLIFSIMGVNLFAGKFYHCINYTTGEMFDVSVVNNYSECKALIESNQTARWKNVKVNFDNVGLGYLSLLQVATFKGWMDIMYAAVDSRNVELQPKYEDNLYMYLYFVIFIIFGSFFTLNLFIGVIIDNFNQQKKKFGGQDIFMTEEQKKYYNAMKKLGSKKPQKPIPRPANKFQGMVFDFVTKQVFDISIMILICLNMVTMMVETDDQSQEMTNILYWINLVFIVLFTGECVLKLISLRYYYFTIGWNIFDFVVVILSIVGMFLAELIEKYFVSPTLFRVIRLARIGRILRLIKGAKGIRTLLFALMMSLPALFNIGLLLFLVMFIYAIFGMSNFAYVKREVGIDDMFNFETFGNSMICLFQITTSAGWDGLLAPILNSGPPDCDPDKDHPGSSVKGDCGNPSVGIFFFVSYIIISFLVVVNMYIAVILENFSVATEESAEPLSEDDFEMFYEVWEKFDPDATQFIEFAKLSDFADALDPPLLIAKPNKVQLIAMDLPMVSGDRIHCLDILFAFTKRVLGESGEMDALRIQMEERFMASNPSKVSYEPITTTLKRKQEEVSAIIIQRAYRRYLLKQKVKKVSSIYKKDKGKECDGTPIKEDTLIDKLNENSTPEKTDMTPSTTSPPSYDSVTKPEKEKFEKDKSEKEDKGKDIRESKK
Chain of Cytochrome P450 2D6 (P10635 whole entry): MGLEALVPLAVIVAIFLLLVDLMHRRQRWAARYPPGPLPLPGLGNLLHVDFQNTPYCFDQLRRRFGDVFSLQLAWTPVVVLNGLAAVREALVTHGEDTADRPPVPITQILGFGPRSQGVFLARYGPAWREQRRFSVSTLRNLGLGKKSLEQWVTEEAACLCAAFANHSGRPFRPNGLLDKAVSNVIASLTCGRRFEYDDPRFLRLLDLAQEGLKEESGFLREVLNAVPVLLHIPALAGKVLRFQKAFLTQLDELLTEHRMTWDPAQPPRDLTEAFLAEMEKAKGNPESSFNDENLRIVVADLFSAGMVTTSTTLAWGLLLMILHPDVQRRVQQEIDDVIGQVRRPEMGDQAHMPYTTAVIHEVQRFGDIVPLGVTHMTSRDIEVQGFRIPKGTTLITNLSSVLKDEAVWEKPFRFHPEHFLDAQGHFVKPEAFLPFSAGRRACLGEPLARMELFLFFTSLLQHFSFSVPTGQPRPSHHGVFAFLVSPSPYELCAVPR
Chain of Cytochrome P450 2C19 (P33261 whole entry): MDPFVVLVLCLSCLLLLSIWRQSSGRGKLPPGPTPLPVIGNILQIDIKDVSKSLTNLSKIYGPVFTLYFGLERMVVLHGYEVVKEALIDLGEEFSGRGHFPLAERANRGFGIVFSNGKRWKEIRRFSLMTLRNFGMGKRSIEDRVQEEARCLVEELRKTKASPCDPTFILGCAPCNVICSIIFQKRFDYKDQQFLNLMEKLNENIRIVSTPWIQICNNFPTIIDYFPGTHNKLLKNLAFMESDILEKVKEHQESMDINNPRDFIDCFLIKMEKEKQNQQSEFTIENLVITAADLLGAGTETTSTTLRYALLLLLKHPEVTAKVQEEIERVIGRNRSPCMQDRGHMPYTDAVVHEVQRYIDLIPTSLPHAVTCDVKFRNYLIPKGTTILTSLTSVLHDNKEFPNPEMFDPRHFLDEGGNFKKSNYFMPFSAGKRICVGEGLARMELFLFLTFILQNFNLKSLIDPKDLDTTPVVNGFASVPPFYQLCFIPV

Compound: CC1(COc2cc(F)c(C(=O)NS(=O)(=O)C3CC3)cc2C2CC2)CCC2(CC1)CC2
- Papp A→B [1]: 9 ×10⁻⁶ cm/s
- Activity (Mus musculus [2]): 98%
- Papp A→B (MDR1 [3]): 3.7 ×10⁻⁶ cm/s
- efflux ratio (MDR1 [4]): 1.2
- concentration at 3.167 h [5]: 1.9 µM
- concentration at 3 h [6]: 50 µM
- Activity [7]: Non-Toxic
- Activity (Mus musculus [8]): 78%
- AUC [9]: 78 µM·h
- logD [10]: 2.1
- fraction unbound [11]: 0.001
- IC50 [12]: 2 nM
- efflux ratio [13]: 1
- IC50 [14]: 50 nM
- Cmax [15]: 9 µM
- Vdss [16]: 0.41 L/kg
- clearance [17]: 1.2 mL/min/kg
- Activity (Mus musculus [18]): 99.5%
- IC50 (Cytochrome P450 2C19): > 10000 nM
- concentration at 3.167 h [19]: 6.2 µM
- solubility kinetic [20]: 10 µM (≈ 4.36 µg/mL)
- IC50 [21]: 3.7 nM
- half-life [22]: 8.1 h
- Vd [23]: 0.14 L/kg
- t1/2 [24]: 1.5 h
- Vd [25]: 0.88 L/kg
- Activity (Mus musculus [26]): 10%
- efflux ratio [27]: 2.1
- IC50 (Cytochrome P450 2D6): > 10000 nM
- bioavailability [28]: 31%
- AUC [29]: 83 µM·h
- Activity (Mus musculus [30]): 86%
